Where “and” joins values, the source holds several entries; their conditions need not be identical. Equal values may be shown once.
Experiments:
B. burgdorferi [1] = assay: Study B: microscopic examination of joints and skin at necropsy; format: in vivo, beagle dogs; settings: for Number of Joints with Changes as Described for Lyme disease: N = 8
Procedure: (§1) Thirty-two (18 male and 14 female) beagle dogs were sero-negative for Borrelia burgdorferi, not vaccinated with any Borrelia spp vaccines, and acclimated at the study facility for seven days. The study was conducted under National Research Council guidelines (1996). […] Field-caught Ixodes from the northeast USA were placed on the dogs without containment chambers for 10 days; after ticks fed to repletion, dogs were treated with two applications of an approved topical acaricide with a 30-day interval between applications.
(§2) Forty days post-challenge, and prior to antibiotic treatments, blood was collected from each dog as were two skin biopsy punch samples near tick attachment sites. Blood was collected approximately monthly post-treatment. Skin biopsies were taken near the tick attachment site on Days 48/49, 118, 146, 180, and 315. Serum antibodies to Borrelia were assayed using the IDEXX SNAP-4Dx and QC6 ELISA. In cooperation with Cornell University, serum samples were analyzed using fluorescent-bead-based multiplex assays detecting antibodies against B. burgdorferi outer surface proteins OspA, OspC, and OspF. Data were expressed as median fluorescent intensities (MFI), and shown to be specific and sensitive to provide interpretative guidelines regarding infection. The skin biopsies were collected for a polymerase chain reaction (PCR; FlaB) assay and cultured for spirochete detection. At the end of the study, blood and skin biopsies were collected and synovial tissue from the joints were harvested at necropsy.
On Day 75 and Day 89 Convenia was administered to the eight dogs in T04 (8 mg/kg bodyweight; subcutaneous injection). The other treated groups received their respective regimens daily and orally for 30 days from Days 75 to 104. […] Dogs in T01 served as infected, untreated, controls. Inter-treatment comparisons to evaluate antibiotic efficacy included clinical signs, serology, culture results and pathology.
At necropsy ten joints were harvested per each dog, formalin-fixed, stained and examined microscopically. Joints included the carpus, elbow, shoulder, stifle and tarsus on both the right and left limbs. Further, a section of skin near tick attachment sites was evaluated from each dog. There were two dogs in the Convenia group (25%) with tissues showing changes as described for Lyme disease, compared to seven controls (87.5%) and three (37.5%) to four (50.0%) dogs in the other antibiotic-treated groups (Table 7). […] The Convenia group had the lowest incidence of joint changes with six affected of 80.

B. burgdorferi [2] = assay: Study A: bacterial culture of skin biopsy samples for spirochetes; format: in vivo, beagle dogs
Procedure: Twenty-three adult female beagle dogs were used in this study; all were sero-negative for Borrelia, not vaccinated with any Borrelia spp vaccines, and acclimated at the study facility for seven days prior to any study activities. The study was conducted under National Research Council guidelines (1996. Dogs were randomized to a non-infected control (n=7 dogs) group, or infected groups (n=8 dogs/region) using ticks from two regions of the USA, Region A (New England (NE), i.e., Rhode Island) and Region B (Midwest (MW), i.e., Wisconsin). Dogs were infected on Day 0 with up to 30 Ixodes scapularis ticks per dog. Tick attachment was monitored daily and after nine days, remaining ticks were harvested and all dogs were treated with two topical applications of an approved acaricide observing a 30-day interval between applications. Dogs were monitored 21-days post-challenge for pyrexia, and the entire post-challenge period for clinical signs of Lyme disease (lameness, ataxia, anorexia, lymphadenopathy and depression).
Blood was collected from each dog weekly to Day 28, then every two-weeks for the remainder of the study (166 days). […] Two skin punch biopsies were collected near tick attachment sites from each dog every 28 days post-challenge for bacterial culture.
On Days 83 and 97, Convenia was administered (8 mg/kg bodyweight; subcutaneous injection). Treated dogs, 8 B. burgdorferi-positive and 4 controls, were compared to untreated cohorts (8 B. burgdorferi-positive, and 3 controls). Comparisons included serology, skin culture results and joint pathology.

[3] = system: B. burgdorferi outer surface protein OspF; assay: Study B: fluorescent-bead-based multiplex assay, antibodies against OspF; format: in vivo, beagle dogs; settings: for Multiplex Assay OspF: No. Dogs > Positive Threshold (# dogs > 1500): 8 dogs/group
Procedure: as §1
as §2, with “Data were expressed as median fluorescent intensities (MFI), and shown to be specific and sensitive to provide interpretative guidelines regarding infection.” left out
On Day 75 and Day 89 Convenia was administered to the eight dogs in T04 (8 mg/kg bodyweight; subcutaneous injection). The other treated groups received their respective regimens daily and orally for 30 days from Days 75 to 104. […] Dogs in T01 served as infected, untreated, controls.

[4] = system: B. burgdorferi sensu stricto (B31 strain); assay: In-vitro assessment of cefovecin efficacy (live spirochetes in culture by light microscopy); format: cell-based, Borrelia burgdorferi; settings: for Number of B. burgdorferi spirochetes per field-of-view (geometric mean per ten field of views): cultures A, C
Procedure: B. burgdorferi sensu stricto (B31 strain) was cultured. The experimental (triplicate) groups included a control, 0.02 μg/mL cefovecin, and 2 μg/mL cefovecin. Cultures were viewed by light microscopy at 0, 6, 24, 30, 48, and 54 hours post inoculation to assess number of live spirochetes (Table 1).

[5] = joints, skin, 8 dogs/group, necropsy
[6] = prior to treatment, of eight dogs

CO/N=C(\C(=O)N[C@@H]1C(=O)N2C(C(=O)[O-])=C([C@@H]3CCCO3)CS[C@H]12)c1csc(N)n1.[Na+] [Convenia, (6R,7R)-7-[[(2Z)-(2-amino-4-thiazolyl)(methoxyimino)acetyl]-amino]-8-oxo-3-[(2S)-tetrahydro-2-furanyl]-5-thia-1-azabicyclo[4.2.0]oct-2-ene-2-carboxylic acid, monosodium salt]
Number of Joints with Changes as Described for Lyme disease, Cumulative (B. burgdorferi [1]; 80 total/group): 6 | Number of Joints with Changes as Described for Lyme disease (B. burgdorferi [1]; Carpus L): 1 | Number of Joints with Changes as Described for Lyme disease (B. burgdorferi [1]; Carpus R): 1 | Number of Joints with Changes as Described for Lyme disease (B. burgdorferi [1]; Elbow L): 0 | Number of Joints with Changes as Described for Lyme disease (B. burgdorferi [1]; Elbow R): 1 | Number of Joints with Changes as Described for Lyme disease (B. burgdorferi [1]; Shoulder L): 0 | Number of Joints with Changes as Described for Lyme disease (B. burgdorferi [1]; Shoulder R): 0 | Number of Joints with Changes as Described for Lyme disease (B. burgdorferi [1]; Stifle L): 1 | Number of Joints with Changes as Described for Lyme disease (B. burgdorferi [1]; Stifle R): 2 | Number of Joints with Changes as Described for Lyme disease (B. burgdorferi [1]; Tarsus L): 0 | Number of Joints with Changes as Described for Lyme disease (B. burgdorferi [1]; Tarsus R): 0 | No Tissue Changes, # Dogs (B. burgdorferi [1]; [5]): 6 | No Tissue Changes, % (B. burgdorferi [1]; [5]): 75% | Tissue Changes Described for Lyme Disease, # Dogs (B. burgdorferi [1]; [5]): two | Tissue Changes Described for Lyme Disease, % (B. burgdorferi [1]; [5]): 25% | Tissue Changes Described for Lyme Disease, # Dogs (B. burgdorferi [1]; joints, skin, 8 dogs/group, necropsy, listed as T04, monosodium salt): 2 | Incidence of joint lesions, lower than in dogs administered doxycycline or amoxicillin orally for 30 days (B. burgdorferi [1]; microscopic evaluation of articular joints): 2 fold | Bacterial culture of skin for spirochetes (B. burgdorferi [2]; post-treatment (Days 111 to 166), 8 mg/kg sc Days 83 and 97): all were negative on bacterial culture | Dogs culture-positive for spirochetes from skin (B. burgdorferi [2]; [6]): 88% | Number of dogs culture-positive for spirochetes from skin (B. burgdorferi [2]; [6]): Seven | Multiplex Assay OspF: MFI Mean ([3]; Day 48 (pre-treatment)): 922.75 MFI | Multiplex Assay OspF: No. Dogs > Positive Threshold (# dogs > 1500) ([3]; Day 48 (pre-treatment)): 2 | Multiplex Assay OspF: No. Dogs > Positive Threshold (# dogs > 1500) ([3]; Day 48 (pre-treatment), monosodium salt): two | Multiplex Assay OspF: MFI Mean ([3]; Day 111): 704.13 MFI | Multiplex Assay OspF: No. Dogs > Positive Threshold (# dogs > 1500) ([3]; Day 111): 0 | Multiplex Assay OspF: MFI Mean ([3]; Day 145): 306.75 MFI | Multiplex Assay OspF: No. Dogs > Positive Threshold (# dogs > 1500) ([3]; Day 145): 0 | Multiplex Assay OspF: MFI Mean ([3]; Day 179): 270.00 MFI | Multiplex Assay OspF: No. Dogs > Positive Threshold (# dogs > 1500) ([3]; Day 179): 0 | Multiplex Assay OspF: MFI Mean ([3]; Day 221): 227.13 MFI | Multiplex Assay OspF: No. Dogs > Positive Threshold (# dogs > 1500) ([3]; Day 221): 0 | Multiplex Assay OspF: MFI Mean ([3]; Day 251): 221.88 MFI | Multiplex Assay OspF: No. Dogs > Positive Threshold (# dogs > 1500) ([3]; Day 251): 0 | Multiplex Assay OspF: MFI Mean ([3]; Day 281): 225.63 MFI | Multiplex Assay OspF: No. Dogs > Positive Threshold (# dogs > 1500) ([3]; Day 281): 0 | Multiplex Assay OspF: MFI Mean ([3]; Day 314): 239.88 MFI | Multiplex Assay OspF: No. Dogs > Positive Threshold (# dogs > 1500) ([3]; Day 314): 0 | Multiplex Assay OspF: MFI Mean ([3]; Day −15 (pre-infection)): 101.50 MFI | Multiplex Assay OspF: No. Dogs > Positive Threshold (# dogs > 1500) ([3]; Day −15 (pre-infection)): 0 | Antibody-OspF status of dogs ([3]; after Day 48): all dogs negative thereafter | Number of B. burgdorferi spirochetes per field-of-view (geometric mean per ten field of views) ([4]; 0.02 μg/mL, 0 hours): 0 | Number of B. burgdorferi spirochetes per field-of-view (geometric mean per ten field of views) ([4]; 0.02 μg/mL, 24 hours, listed as cefovecin, monosodium salt): 1.7 and 2.1 and 2.0 | Number of B. burgdorferi spirochetes per field-of-view (geometric mean per ten field of views) ([4]; 0.02 μg/mL, 48 hours, listed as cefovecin, monosodium salt): 7.2 and 4.1 and 5.9 | Number of B. burgdorferi spirochetes per field-of-view (geometric mean per ten field of views) ([4]; 0.02 μg/mL, 54 hours, listed as cefovecin, monosodium salt): 8.1 and 10.2 and 9.0 | Retardation of growth of B. burgdorferi ([4]; 0.02 μg/mL, in 54 hours): at least 30% | Time after which B. burgdorferi is eliminated in culture ([4]; 2 μg/mL): about 24 hours | Number of B. burgdorferi spirochetes per field-of-view (geometric mean per ten field of views) ([4]; 2 μg/mL, 0 hours): 0 | Number of B. burgdorferi spirochetes per field-of-view (geometric mean per ten field of views) ([4]; 2 μg/mL, 30 hours): 0 | Number of B. burgdorferi spirochetes per field-of-view (geometric mean per ten field of views) ([4]; 2 μg/mL, 48 hours): 0 | Number of B. burgdorferi spirochetes per field-of-view (geometric mean per ten field of views) ([4]; 2 μg/mL, 54 hours): 0

From patent publication US9265771B2, “Method for treating Lyme disease” (Zoetis Services LLC, priority 2012, dated 2016)
